Measured values as given in PubChem BioAssay (NCI).
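Growth conditions: 96-well plates. Treatment: test compound, 48 hours, 5 concentrations. Analysis: linear interpolation between bracketing concentrations; unreached endpoints set to highest concentration. Abbreviation: GI50, concentration required for 50% inhibition of growth. At the TGI there is no net growth.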

Columns and labels:
Assay in all cases: inhibition of tumour cell growth, NCI panel, 48 h
OVCAR-3 ovarian = test system: OVCAR-3 ovarian
OVCAR-5 ovarian = test system: OVCAR-5 ovarian
SF-268 CNS = test system: SF-268 CNS
UACC-62 melanoma = test system: UACC-62 melanoma
SK-OV-3 ovarian = test system: SK-OV-3 ovarian
HOP-62 NSCLC = test system: HOP-62 NSCLC
HCT-116 colon = test system: HCT-116 colon
M14 melanoma = test system: M14 melanoma
KM12 colon = test system: KM12 colon
UACC-257 melanoma = test system: UACC-257 melanoma
A498 renal = test system: A498 renal
RXF 393 renal = test system: RXF 393 renal
SNB-75 CNS = test system: SNB-75 CNS
EKVX NSCLC = test system: EKVX NSCLC
HL-60(TB) leukemia = test system: HL-60(TB) leukemia
786-0 renal = test system: 786-0 renal
HCC-2998 colon = test system: HCC-2998 colon
U251 CNS = test system: U251 CNS
DU-145 prostate = test system: DU-145 prostate
SW-620 colon = test system: SW-620 colon
MCF7 breast = test system: MCF7 breast
NCI/ADR-RES ovarian = test system: NCI/ADR-RES ovarian
OVCAR-4 ovarian = test system: OVCAR-4 ovarian
MDA-MB-468 breast = test system: MDA-MB-468 breast
NCI-H522 lung = test system: NCI-H522 lung
OVCAR-8 ovarian = test system: OVCAR-8 ovarian
MALME-3M melanoma = test system: MALME-3M melanoma
HS 578T breast = test system: HS 578T breast
SN12C renal = test system: SN12C renal
LOX IMVI melanoma = test system: LOX IMVI melanoma
CCRF-CEM leukemia = test system: CCRF-CEM leukemia
BT-549 breast = test system: BT-549 breast
SK-MEL-5 melanoma = test system: SK-MEL-5 melanoma
CAKI-1 renal = test system: CAKI-1 renal
SK-MEL-2 melanoma = test system: SK-MEL-2 melanoma
HT29 colon = test system: HT29 colon
T-47D breast = test system: T-47D breast
NCI-H226 lung = test system: NCI-H226 lung
HOP-92 NSCLC = test system: HOP-92 NSCLC
NCI-H23 lung = test system: NCI-H23 lung
MDA-MB-435 = test system: MDA-MB-435
PC-3 prostate = test system: PC-3 prostate
SF-539 CNS = test system: SF-539 CNS
MOLT-4 leukemia = test system: MOLT-4 leukemia
SR leukemia = test system: SR leukemia
HCT-15 colon = test system: HCT-15 colon
TK-10 renal = test system: TK-10 renal
A549 NSCLC = test system: A549 NSCLC
SNB-19 CNS = test system: SNB-19 CNS
NCI-H460 lung = test system: NCI-H460 lung
RPMI-8226 leukemia = test system: RPMI-8226 leukemia
IGROV1 ovarian = test system: IGROV1 ovarian
K-562 leukemia = test system: K-562 leukemia
ACHN renal = test system: ACHN renal
MDA-MB-231 breast = test system: MDA-MB-231 breast
UO-31 renal = test system: UO-31 renal
SF-295 CNS = test system: SF-295 CNS
COLO 205 colon = test system: COLO 205 colon
SK-MEL-28 melanoma = test system: SK-MEL-28 melanoma

## COc1ccc2[nH]cc(/C=N/Nc3ccc(Br)cn3)c2c1
OVCAR-3 ovarian
  GI50: 11.6 µM
  TGI: > 100 µM
OVCAR-5 ovarian
  GI50: 4.17 µM
  TGI: 79.4 µM
SF-268 CNS
  GI50: 5.23 µM
  TGI: > 100 µM
UACC-62 melanoma
  GI50: 8.45 µM
  TGI: > 100 µM
SK-OV-3 ovarian
  GI50: 6.19 µM
  TGI: > 100 µM
HOP-62 NSCLC
  GI50: 10.1 µM
  TGI: > 100 µM
HCT-116 colon
  GI50: 5.97 µM
  TGI: > 100 µM
M14 melanoma
  GI50: 7.27 µM
  TGI: > 100 µM
KM12 colon
  GI50: 2.71 µM
  TGI: 24.7 µM
UACC-257 melanoma
  GI50: 25.1 µM
  TGI: > 100 µM
A498 renal
  GI50: 20.5 µM
  TGI: 61.7 µM
RXF 393 renal
  GI50: 2.09 µM
  TGI: 31.5 µM
SNB-75 CNS
  GI50: 0.286 µM
  TGI: 55.1 µM
EKVX NSCLC
  GI50: 2.71 µM
  TGI: > 100 µM
HL-60(TB) leukemia
  GI50: 2.54 µM
  TGI: 28.3 µM
786-0 renal
  GI50: 12.6 µM
  TGI: 40.1 µM
HCC-2998 colon
  GI50: 5.74 µM
  TGI: 32.5 µM
U251 CNS
  GI50: 15.9 µM
  TGI: > 100 µM
DU-145 prostate
  GI50: 13.3 µM
  TGI: > 100 µM
SW-620 colon
  GI50: 15.7 µM
  TGI: > 100 µM
MCF7 breast
  GI50: 1.7 µM
  TGI: > 100 µM
NCI/ADR-RES ovarian
  GI50: 5.33 µM
  TGI: > 100 µM
OVCAR-4 ovarian
  GI50: 43.2 µM
  TGI: > 100 µM
MDA-MB-468 breast
  GI50: 1.74 µM
  TGI: 6.4 µM
NCI-H522 lung
  GI50: 3.11 µM
  TGI: 33.5 µM
OVCAR-8 ovarian
  GI50: 20.8 µM
  TGI: > 100 µM
MALME-3M melanoma
  GI50: 82.7 µM
  TGI: > 100 µM
HS 578T breast
  GI50: 6.91 µM
  TGI: 68.2 µM
SN12C renal
  GI50: 2.38 µM
  TGI: 65.9 µM
LOX IMVI melanoma
  GI50: 3.4 µM
  TGI: 24.7 µM
CCRF-CEM leukemia
  GI50: 0.466 µM
  TGI: 41 µM
BT-549 breast
  GI50: 0.176 µM
  TGI: > 100 µM
SK-MEL-5 melanoma
  GI50: 7.41 µM
  TGI: 25.3 µM
CAKI-1 renal
  GI50: 3.01 µM
  TGI: > 100 µM
SK-MEL-2 melanoma
  GI50: 21.4 µM
  TGI: 81.8 µM
HT29 colon
  GI50: 8.77 µM
  TGI: > 100 µM
T-47D breast
  GI50: 3.22 µM
  TGI: > 100 µM
NCI-H226 lung
  GI50: 2.02 µM
  TGI: > 100 µM
HOP-92 NSCLC
  GI50: 2.22 µM
  TGI: 19.3 µM
NCI-H23 lung
  GI50: 11.6 µM
  TGI: > 100 µM
MDA-MB-435
  GI50: 6.73 µM
  TGI: > 100 µM
PC-3 prostate
  GI50: 2.55 µM
  TGI: > 100 µM
SF-539 CNS
  GI50: 2.65 µM
  TGI: 37.3 µM
MOLT-4 leukemia
  GI50: 2.85 µM
  TGI: > 100 µM
SR leukemia
  GI50: 4.8 µM
  TGI: 58.3 µM
HCT-15 colon
  GI50: 4.46 µM
  TGI: > 100 µM
TK-10 renal
  GI50: 18.6 µM
  TGI: > 100 µM
A549 NSCLC
  GI50: 8.12 µM
  TGI: > 100 µM
SNB-19 CNS
  GI50: 20.7 µM
  TGI: > 100 µM
NCI-H460 lung
  GI50: 7.68 µM
  TGI: > 100 µM
RPMI-8226 leukemia
  GI50: 1.62 µM
  TGI: 9.07 µM
IGROV1 ovarian
  GI50: 0.634 µM
  TGI: 6.41 µM
K-562 leukemia
  GI50: 2.94 µM
  TGI: > 100 µM
ACHN renal
  GI50: 7.76 µM
  TGI: > 100 µM
MDA-MB-231 breast
  GI50: 1.93 µM
  TGI: 8.71 µM
UO-31 renal
  GI50: 1.09 µM
  TGI: > 100 µM
SF-295 CNS
  GI50: 9.13 µM
  TGI: 48.4 µM
COLO 205 colon
  GI50: 15.7 µM
  TGI: 67.9 µM
SK-MEL-28 melanoma
  GI50: 29.1 µM
  TGI: > 100 µM
